{"source": "patent US9481910B2", "about": "“Methods and compositions for the detection of drug resistant BRAF isoforms” (MEMORIAL SLOAN-KETTERING CANCER CENTER, priority 2011, dated 2016)", "key": {"p61 BRAF(V600E/R509H)": {"target": "p61 BRAF(V600E/R509H) (Homo sapiens, UniProt P15056, DEL169-380/R509H/V600E)", "sequence (P15056 with tags, fused parts or gaps DEL169-380/R509H/V600E)": "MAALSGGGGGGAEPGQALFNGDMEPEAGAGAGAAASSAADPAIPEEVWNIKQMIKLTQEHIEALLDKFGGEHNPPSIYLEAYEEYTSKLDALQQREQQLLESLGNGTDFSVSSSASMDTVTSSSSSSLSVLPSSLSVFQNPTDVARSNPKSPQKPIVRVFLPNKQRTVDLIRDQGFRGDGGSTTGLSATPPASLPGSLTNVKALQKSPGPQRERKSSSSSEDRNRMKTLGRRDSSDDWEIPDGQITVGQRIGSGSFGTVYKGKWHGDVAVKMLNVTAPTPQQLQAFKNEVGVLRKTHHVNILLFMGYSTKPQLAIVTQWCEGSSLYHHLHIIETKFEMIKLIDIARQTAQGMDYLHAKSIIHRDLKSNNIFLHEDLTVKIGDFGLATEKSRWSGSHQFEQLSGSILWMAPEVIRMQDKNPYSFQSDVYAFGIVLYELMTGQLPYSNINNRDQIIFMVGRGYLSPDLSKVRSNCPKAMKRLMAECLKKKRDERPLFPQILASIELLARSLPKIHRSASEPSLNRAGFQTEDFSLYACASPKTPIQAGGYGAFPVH", "test": "ERK signaling in 293H cells expressing p61 BRAF(V600E/R509H)", "type": "cell-based", "details": "2 μM for 1 hour", "description": "(§1) The BRAF inhibitor, PLX403219 (vemurafenib) was obtained from Plexxikon Inc. PD0325901 was synthesized in the MSKCC Organic Synthesis Core Facility. Flag-tagged BRAF constructs have been described previously4. All other plasmids were created using standard cloning methods, with pcDNA3.1 (Invitrogen) as a vector. Mutations were introduced using the site-directed Mutagenesis Kit (Stratagene). For transfection studies, cells were seeded on 35 mm or 100 mm plates and transfected the following day using Lipofectamine 2000 (Invitrogen). Cells were collected 24 hours later for subsequent analysis. cDNA Preparation and PCR."}, "[1]": {"test_system": "ERK signaling (pMEK, pERK)", "test": "ERK signaling (pMEK/pERK Western blot) in SKMEL-239 parental cells and PLX4032-resistant clones", "protocol": "Western blotting and receptor tyrosine kinase (RTK) arrays. Western blot analysis was performed as previously described13. The following antibodies were used: p217/p221-MEK (pMEK), p202/p204-ERK (pERK), MEK, ERK, (Cell Signaling), V5 tag (Invitrogen), BRAF, cyclin Flag tag, β-actin (Sigma)."}, "SKMEL-239 cells": {"test_system": "SKMEL-239 cells", "test": "Cell cycle and cell death (sub-G1 peak by FACS) in SKMEL-239 parental cells and resistant clones", "type": "cell-based, human", "description": "(§2) For proliferation assays, cells were plated in 6-well plates, and 24 hours later were treated with varying concentrations of inhibitors, or vehicle control, as indicated. IC50 values were calculated using Graph Pad Prism v.5. For cell cycle and apoptosis studies, cells were seeded in 6-well dishes the day prior to drug treatment. For analysis, both adherent and floating cells were harvested and stained with ethidium bromide as described previously 21."}, "[2]": {"test_system": "wild-type (+/+), BRAF−/− or CRAF−/− MEFs", "test": "MEK/ERK activation in wild-type, BRAF knockout or CRAF knockout MEFs", "type": "cell-based", "details": "indicated concentrations, 1 h"}, "p61 BRAF(V600E) [3]": {"target": "T1, p61 BRAF(V600E) (Homo sapiens, UniProt P15056, DEL169-380/V600E)", "T1 sequence (P15056 with tags, fused parts or gaps DEL169-380/V600E)": "as the sequence (P15056 with tags, fused parts or gaps DEL169-380/R509H/V600E) above, with H297R counted along it", "test": "In vitro kinase assay of immunoprecipitated V5-tagged p61 BRAF(V600E), inactive MEK(K97R) as substrate", "type": "biochemical", "details": "200 μM ATP, 30° C., 20 min", "description": "V5-tagged full length BRAF(V600E) or V5-tagged p61 BRAF(V600E) were ectopically expressed in 293H cells. 24 hours later, cells were harvested, lysed and BRAF was immunoprecipitated using a V5 antibody. […] Kinase activity was estimated by western blot for pMEK.\nImmunoprecipitations and kinase assays. Cells were lysed in lysis buffer (50 mM Tris, pH7.5, 1% NP40, 150 mM NaCl, 10% glycerol, 1 mM EDTA) supplemented with protease and phosphatase inhibitor cocktail tablets (Roche). Immunoprecipitations were performed at 4° C. for 4 h, followed by three washes with lysis buffer and, in cases of subsequent kinase assay, one final wash with kinase buffer (25 mM Tris, pH 7.5, 10 mM MgCl2). […] The kinase reaction was terminated by adding sample buffer and boiling. Kinase activity was determined by immunoblotting for pMEK."}, "p61 BRAF(V600E) [4]": {"target": "T1, p61 BRAF(V600E)", "test": "ERK signaling in 293H cells ectopically expressing p61 BRAF(V600E)", "type": "cell-based", "details": "293H cells expressing p61 BRAF(V600E), 2 μM for 1 hour", "description": "as §1"}, "p61 BRAF(V600E) [5]": {"target": "T1, p61 BRAF(V600E)", "test": "ERK signaling in SKMEL-239 or HT-29 cells ectopically expressing p61 BRAF(V600E)", "type": "cell-based", "details": "1 hour", "description": "as §1"}, "BRAF(V600E/R509H)": {"target": "BRAF(V600E/R509H) (Homo sapiens, UniProt P15056, R509H/V600E)", "sequence (P15056 whole entry R509H/V600E)": "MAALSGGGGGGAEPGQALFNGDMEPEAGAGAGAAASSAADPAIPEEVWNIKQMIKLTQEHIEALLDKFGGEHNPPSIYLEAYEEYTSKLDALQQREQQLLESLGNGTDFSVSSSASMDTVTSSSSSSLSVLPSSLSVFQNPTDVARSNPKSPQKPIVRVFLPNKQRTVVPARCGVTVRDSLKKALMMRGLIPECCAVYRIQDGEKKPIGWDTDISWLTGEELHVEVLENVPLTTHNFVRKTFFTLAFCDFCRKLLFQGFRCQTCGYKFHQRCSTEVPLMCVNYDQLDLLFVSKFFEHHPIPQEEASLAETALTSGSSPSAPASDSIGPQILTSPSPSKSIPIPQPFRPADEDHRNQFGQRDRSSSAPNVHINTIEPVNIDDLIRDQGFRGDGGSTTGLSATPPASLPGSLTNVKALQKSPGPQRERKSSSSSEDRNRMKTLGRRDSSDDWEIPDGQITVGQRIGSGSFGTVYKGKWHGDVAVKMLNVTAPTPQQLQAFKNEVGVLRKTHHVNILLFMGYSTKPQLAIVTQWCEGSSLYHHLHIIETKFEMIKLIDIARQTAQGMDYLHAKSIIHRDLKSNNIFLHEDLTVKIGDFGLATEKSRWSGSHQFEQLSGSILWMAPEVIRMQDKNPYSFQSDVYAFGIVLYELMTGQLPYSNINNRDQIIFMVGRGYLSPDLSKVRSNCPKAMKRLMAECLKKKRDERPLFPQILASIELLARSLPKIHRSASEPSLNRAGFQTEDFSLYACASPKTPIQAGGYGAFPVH", "test": "ERK signaling in 293H cells expressing the dimerization mutant BRAF(V600E/R509H)", "type": "cell-based", "details": "2 μM for 1 hour", "description": "as §1"}, "[6]": {"test_system": "HT-29 cells (colorectal; BRAF(V600E)) expressing NRAS(G12V)", "test": "MEK/ERK in HT-29 cells transfected with HA-tagged NRAS(G12V)", "type": "cell-based", "details": "various concentrations, 1 h"}, "[7]": {"test_system": "HT-29 cells (colorectal; BRAF(V600E)) expressing HER2 (V654E)", "test": "MEK/ERK in HT-29 cells transfected with activated HER2 (V654E)", "type": "cell-based", "details": "various concentrations, 1 h"}, "[8]": {"test_system": "PLX4032-resistant SKMEL-239 clones", "test": "Sensitivity of PLX4032-resistant SKMEL-239 clones to MEK inhibitor (5-day proliferation, pMEK/pERK dose-response)", "type": "cell-based, human", "details": "all five resistant clones; slightly higher doses than in the parental cell line", "description": "as §2"}, "[9]": {"details": "parental SKMEL-239, 2 μM PLX4032"}}, "note": "“Also recorded” adds a separate entry of the source.", "data": [{"smiles": "CCCS(=O)(=O)Nc1ccc(F)c(C(=O)c2c[nH]c3ncc(-c4ccc(Cl)cc4)cc23)c1F", "note": "[PLX4032]", "values": [{"measurement": "inhibition of ERK signaling", "setting": "p61 BRAF(V600E/R509H)", "value": "inhibited"}, {"measurement": "sensitivity of ERK signaling to the drug", "setting": "[1]; PLX4032-resistant SKMEL-239 cells", "value": "decreased sensitivity"}, {"measurement": "IC50 for pMEK inhibition relative to the parental cell line", "setting": "[1]; SKMEL-239 C3 clone, 1 hour", "value": "more than 100 fold"}, {"measurement": "pMEK IC50 relative to the parental clone", "setting": "[1]; SKMEL-239 C5 clone, 1 hour", "value": 4.5, "unit": "fold"}, {"measurement": "inhibition of ERK signaling", "setting": "[1]; [9]", "value": "effectively inhibits ERK signaling"}, {"measurement": "cell death (sub-G1 peak by FACS)", "setting": "SKMEL-239 cells; five PLX4032-resistant SKMEL-239 clones", "value": "not in the five resistant clones"}, {"measurement": "cell cycle effect", "setting": "SKMEL-239 cells; [9]", "value": "accumulation of cells in G1"}, {"measurement": "cell death (sub-G1 peak by FACS)", "setting": "SKMEL-239 cells; parental SKMEL-239 cells", "value": "significant induction of cell death; also recorded: induced cell death"}, {"measurement": "MEK/ERK activation", "setting": "[2]", "value": "MEK/ERK activation does not require BRAF"}, {"measurement": "inhibition of kinase activity in vitro (pMEK Western blot)", "setting": "p61 BRAF(V600E) [3]", "value": "can be inhibited in vitro"}, {"measurement": "sensitivity of ERK signaling (pMEK, pERK)", "setting": "p61 BRAF(V600E) [4]", "value": "resistant; also recorded: insensitive"}, {"measurement": "inhibition of ERK signaling", "setting": "p61 BRAF(V600E) [5]; HT-29 cells expressing p61 BRAF(V600E)", "value": "failure of PLX4032 to effectively inhibit ERK signaling"}, {"measurement": "inhibition of ERK signaling", "setting": "p61 BRAF(V600E) [5]; parental SKMEL-239 cells expressing p61 BRAF(V600E)", "value": "failure of PLX4032 to effectively inhibit ERK signaling"}, {"measurement": "sensitivity of ERK signaling", "setting": "BRAF(V600E/R509H)", "value": "remained sensitive"}, {"measurement": "sensitivity of MEK/ERK to RAF inhibitor", "setting": "[6]", "value": "insensitive"}, {"measurement": "sensitivity of MEK/ERK to RAF inhibitor", "setting": "[7]", "value": "insensitive"}]}, {"smiles": "O=C(NOC[C@H](O)CO)c1ccc(F)c(F)c1Nc1ccc(I)cc1F", "note": "[PD032590113]", "values": [{"measurement": "sensitivity to the MEK inhibitor", "setting": "[8]", "value": "retained sensitivity"}]}]}
